Assay results as given in publication PMC6832352, “Synthesis and Glycosidase Inhibition of Broussonetine M and Its Analogues” (Molecules, 2019).

What was measured:
Type in all cases: biochemical
β-Glucuronidase = target: T1, β-Glucuronidase (Escherichia coli, UniProt P05804); assay: glycosidase inhibition assay, E. coli β-glucuronidase
T1 construct: purchased Sigma-Aldrich Chemical Co
Protocol: (§1) With rat intestinal maltase as an exception, other enzymes were purchased from Sigma-Aldrich Chemical Co. (St. Louis, Mo. USA). Brush border membranes prepared from rat small intestine according to the method of Kessler et al. were assayed at pH 6.8 for rat intestinal maltase using maltose. The released D-glucose was determined colorimetrically using the Glucose CII-test Wako (Wako Pure Chemical Ind.; Osaka, Japan). Other glycosidase activities were determined using an appropriate p-nitrophenyl glycoside as substrate in a buffer solution at the optimal pH value of each enzyme. The reaction was stopped by adding 400 mM Na2CO3. The released p-nitrophenol was measured spectrometrically at 400 nm.

Amyloglucosidase = target: T2, Amyloglucosidase (Aspergillus niger, UniProt P69328); assay: glycosidase inhibition assay, A. niger amyloglucosidase
T2 construct: purchased Sigma-Aldrich Chemical Co
Protocol: as §1

α-Glucosidase = target: T3, α-Glucosidase (Saccharomyces cerevisiae, UniProt P53341); assay: glycosidase inhibition assay, yeast α-glucosidase; conditions: for IC50: α-Glucosidase, Yeast
T3 construct: purchased Sigma-Aldrich Chemical Co
Protocol: as §1

Rat intestinal maltase = assay: rat intestinal maltase inhibition (brush border membranes, maltose); conditions: for inhibition %: at 100 μM
Protocol: as §1

β-Mannosidase = assay: glycosidase inhibition assay, snail β-mannosidase; conditions: for inhibition %: at 100 μM
Protocol: as §1

α-Mannosidase = target: T4, α-Mannosidase (Canavalia ensiformis, UniProt C0HJB3); assay: glycosidase inhibition assay, jack bean α-mannosidase
T4 construct: purchased Sigma-Aldrich Chemical Co
T4 sequence (C0HJB3 1-981): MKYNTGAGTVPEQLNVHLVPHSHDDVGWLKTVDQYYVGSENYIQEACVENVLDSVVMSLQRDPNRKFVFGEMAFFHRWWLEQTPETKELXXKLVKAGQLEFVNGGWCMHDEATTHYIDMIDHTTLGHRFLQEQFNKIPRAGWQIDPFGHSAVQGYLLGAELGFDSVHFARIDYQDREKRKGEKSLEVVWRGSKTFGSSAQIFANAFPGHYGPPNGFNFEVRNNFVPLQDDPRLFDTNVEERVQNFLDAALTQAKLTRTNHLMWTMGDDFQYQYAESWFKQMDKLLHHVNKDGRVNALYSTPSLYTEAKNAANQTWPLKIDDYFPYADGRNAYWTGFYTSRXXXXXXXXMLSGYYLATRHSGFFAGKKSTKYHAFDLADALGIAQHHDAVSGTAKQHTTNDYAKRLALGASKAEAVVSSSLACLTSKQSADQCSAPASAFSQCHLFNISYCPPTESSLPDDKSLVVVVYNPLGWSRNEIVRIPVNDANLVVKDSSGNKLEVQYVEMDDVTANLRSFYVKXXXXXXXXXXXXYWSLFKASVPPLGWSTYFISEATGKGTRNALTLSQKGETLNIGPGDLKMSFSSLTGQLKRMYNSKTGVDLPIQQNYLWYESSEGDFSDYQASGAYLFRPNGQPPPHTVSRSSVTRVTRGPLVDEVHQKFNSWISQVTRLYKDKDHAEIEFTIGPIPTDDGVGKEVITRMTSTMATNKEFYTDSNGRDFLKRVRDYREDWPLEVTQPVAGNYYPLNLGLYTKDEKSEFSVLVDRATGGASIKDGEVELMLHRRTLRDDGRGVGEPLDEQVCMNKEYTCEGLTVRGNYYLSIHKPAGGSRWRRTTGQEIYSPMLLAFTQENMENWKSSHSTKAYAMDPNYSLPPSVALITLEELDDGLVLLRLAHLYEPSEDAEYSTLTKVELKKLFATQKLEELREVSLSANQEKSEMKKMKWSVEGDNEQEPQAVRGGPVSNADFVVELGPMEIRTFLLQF
Protocol: as §1

α-L-Rhamnosidase = target: T5, α-L-Rhamnosidase (Penicillium decumbens, UniProt S7ZS15); assay: glycosidase inhibition assay, P. decumbens α-L-rhamnosidase
T5 sequence (S7ZS15 1-894): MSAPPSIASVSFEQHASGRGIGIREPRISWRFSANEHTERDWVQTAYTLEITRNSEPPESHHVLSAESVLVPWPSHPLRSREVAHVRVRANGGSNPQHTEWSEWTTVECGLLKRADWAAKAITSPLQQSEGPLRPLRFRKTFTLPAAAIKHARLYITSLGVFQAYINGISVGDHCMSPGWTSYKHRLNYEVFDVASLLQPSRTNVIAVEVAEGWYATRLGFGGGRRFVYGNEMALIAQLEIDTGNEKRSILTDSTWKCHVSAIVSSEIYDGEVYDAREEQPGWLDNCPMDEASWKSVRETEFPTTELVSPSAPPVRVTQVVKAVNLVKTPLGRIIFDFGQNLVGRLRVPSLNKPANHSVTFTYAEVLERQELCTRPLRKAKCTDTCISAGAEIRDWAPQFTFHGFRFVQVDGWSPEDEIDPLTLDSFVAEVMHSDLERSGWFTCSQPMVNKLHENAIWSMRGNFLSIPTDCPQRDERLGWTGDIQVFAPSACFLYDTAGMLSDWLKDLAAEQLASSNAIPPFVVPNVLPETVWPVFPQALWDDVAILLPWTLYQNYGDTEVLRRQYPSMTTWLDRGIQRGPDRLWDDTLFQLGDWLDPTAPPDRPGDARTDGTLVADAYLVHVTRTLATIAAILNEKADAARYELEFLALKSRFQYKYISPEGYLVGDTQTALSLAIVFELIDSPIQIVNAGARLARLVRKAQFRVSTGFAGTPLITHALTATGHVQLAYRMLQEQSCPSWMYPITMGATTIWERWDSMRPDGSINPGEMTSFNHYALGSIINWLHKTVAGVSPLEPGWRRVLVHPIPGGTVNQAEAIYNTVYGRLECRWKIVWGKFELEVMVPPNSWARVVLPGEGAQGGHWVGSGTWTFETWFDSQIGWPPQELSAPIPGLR
Protocol: as §1

α-Galactosidase = target: T6, α-Galactosidase (Coffea arabica, UniProt Q42656); assay: glycosidase inhibition assay, coffee beans α-galactosidase; conditions: for IC50: α-Galactosidase, Coffee beans
T6 construct: purchased Sigma-Aldrich Chemical Co
Protocol: as §1

T3 sequence (P53341 whole entry): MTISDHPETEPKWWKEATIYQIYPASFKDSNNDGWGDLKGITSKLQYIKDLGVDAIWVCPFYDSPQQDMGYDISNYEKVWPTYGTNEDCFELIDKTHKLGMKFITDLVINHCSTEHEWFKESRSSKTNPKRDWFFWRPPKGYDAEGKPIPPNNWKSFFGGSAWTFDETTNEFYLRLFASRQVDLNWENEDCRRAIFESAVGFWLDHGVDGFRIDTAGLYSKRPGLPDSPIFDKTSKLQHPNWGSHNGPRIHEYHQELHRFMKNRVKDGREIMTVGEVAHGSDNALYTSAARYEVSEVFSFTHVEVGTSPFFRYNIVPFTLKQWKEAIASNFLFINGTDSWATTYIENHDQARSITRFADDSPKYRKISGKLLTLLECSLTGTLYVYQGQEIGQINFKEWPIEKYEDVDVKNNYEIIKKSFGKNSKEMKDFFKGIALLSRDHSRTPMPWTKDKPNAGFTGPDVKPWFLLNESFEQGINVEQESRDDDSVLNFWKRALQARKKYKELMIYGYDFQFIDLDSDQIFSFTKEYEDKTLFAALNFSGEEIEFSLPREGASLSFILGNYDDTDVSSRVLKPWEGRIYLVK
T2 sequence (P69328 25-640): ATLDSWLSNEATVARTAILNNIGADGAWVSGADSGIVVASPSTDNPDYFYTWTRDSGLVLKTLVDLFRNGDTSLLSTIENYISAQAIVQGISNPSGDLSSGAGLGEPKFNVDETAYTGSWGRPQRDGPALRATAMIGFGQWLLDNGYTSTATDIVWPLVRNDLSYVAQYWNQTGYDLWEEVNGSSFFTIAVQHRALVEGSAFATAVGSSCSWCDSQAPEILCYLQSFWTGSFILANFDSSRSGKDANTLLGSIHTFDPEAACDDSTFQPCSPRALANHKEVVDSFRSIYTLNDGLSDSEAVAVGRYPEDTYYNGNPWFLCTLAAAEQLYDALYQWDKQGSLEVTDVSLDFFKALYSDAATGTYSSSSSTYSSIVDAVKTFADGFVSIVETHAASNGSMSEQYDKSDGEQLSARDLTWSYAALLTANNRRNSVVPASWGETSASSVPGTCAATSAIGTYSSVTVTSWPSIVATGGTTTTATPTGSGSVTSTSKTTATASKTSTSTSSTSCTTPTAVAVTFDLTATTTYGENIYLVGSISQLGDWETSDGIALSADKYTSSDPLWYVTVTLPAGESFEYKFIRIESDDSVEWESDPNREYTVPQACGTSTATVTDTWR
T6 sequence (Q42656 16-378): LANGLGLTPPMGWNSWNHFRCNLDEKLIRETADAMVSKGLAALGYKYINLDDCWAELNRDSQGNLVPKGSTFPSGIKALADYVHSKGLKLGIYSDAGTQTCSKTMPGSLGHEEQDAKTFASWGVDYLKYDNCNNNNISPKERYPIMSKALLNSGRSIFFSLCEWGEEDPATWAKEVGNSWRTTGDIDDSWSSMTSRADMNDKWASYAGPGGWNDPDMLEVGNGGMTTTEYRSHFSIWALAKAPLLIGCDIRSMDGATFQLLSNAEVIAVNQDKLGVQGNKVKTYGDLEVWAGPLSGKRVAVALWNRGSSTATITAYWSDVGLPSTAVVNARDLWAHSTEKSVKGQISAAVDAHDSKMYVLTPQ
T1 sequence (P05804 whole entry): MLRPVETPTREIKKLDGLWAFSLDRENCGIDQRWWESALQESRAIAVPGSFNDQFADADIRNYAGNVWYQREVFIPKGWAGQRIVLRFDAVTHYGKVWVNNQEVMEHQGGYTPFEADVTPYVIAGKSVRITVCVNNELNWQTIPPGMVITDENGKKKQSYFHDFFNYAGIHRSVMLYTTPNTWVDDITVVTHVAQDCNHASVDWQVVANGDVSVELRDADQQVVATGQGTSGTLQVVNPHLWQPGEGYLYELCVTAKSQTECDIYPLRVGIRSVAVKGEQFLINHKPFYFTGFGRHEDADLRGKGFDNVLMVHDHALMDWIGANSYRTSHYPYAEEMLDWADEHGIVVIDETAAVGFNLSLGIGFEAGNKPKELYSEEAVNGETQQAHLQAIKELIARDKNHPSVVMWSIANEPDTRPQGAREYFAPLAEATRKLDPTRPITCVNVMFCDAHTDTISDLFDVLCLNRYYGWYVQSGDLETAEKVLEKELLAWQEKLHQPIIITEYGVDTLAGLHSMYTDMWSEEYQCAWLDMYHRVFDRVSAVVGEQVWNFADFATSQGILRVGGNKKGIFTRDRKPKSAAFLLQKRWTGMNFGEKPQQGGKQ

| Compound | IC50 (β-Glucuronidase) [µM] | IC50 (Amyloglucosidase) [µM] | inhibition at 100 µM (Amyloglucosidase) [%] | inhibition at 100 µM (α-Glucosidase) [%] | IC50 (α-Glucosidase) [µM] | IC50 (Rat intestinal maltase) [µM] | inhibition % (Rat intestinal maltase) [%] | IC50 (β-Mannosidase) [µM] | inhibition % (β-Mannosidase) [%] | IC50 (α-Mannosidase) [µM] | inhibition at 100 µM (α-Mannosidase) [%] | inhibition at 100 µM (α-L-Rhamnosidase) [%] | inhibition at 100 µM (α-Galactosidase) [%] | IC50 (α-Galactosidase) [µM] | inhibition at 100 µM (β-Glucuronidase) [%] |
| --- | --- | --- | --- | --- | --- | --- | --- | --- | --- | --- | --- | --- | --- | --- | --- |
| OCCC[C@@H](O)CCCCCCCCC[C@H]1N[C@H](CO)[C@@H](O)[C@@H]1O [compound 3, (2R,3R,4R,5R)-2-hydroxymethyl-3,4-dihydroxyl-5-((10R)-10,13-(dihydroxyl)dec-1-yl)pyrrolidine] | 86 | > 100 | 3.8 | 2.6 | > 100 | > 100 | 0 | > 100 | 1.7 | > 100 | 2.5 | 6.1 | 0 | > 100 | – |
| OCCC[C@@H](O)CCCCCCCCC[C@@H]1N[C@@H](CO)[C@H](O)[C@H]1O [ent-10’-epi-3] | > 100 | > 100 | 6.1 | 1.9 | > 100 | – | – | > 100 | 2.0 | > 100 | 1.8 | 1.8 | 12.2 | > 100 | 36.2 |
| OCCC[C@H](O)CCCCCCCCC[C@@H]1N[C@@H](CO)[C@H](O)[C@H]1O [ent-3, (2S,3S,4S,5S)-2-hydroxymethyl-3,4-dihydroxyl-5-((10S)-10,13-(dihydroxyl)dec-1-yl) pyrrolidine] | > 100 | > 100 | 0 | 1.9 | > 100 | 0.29 | – | > 100 | 0 | > 100 | 2.2 | 13.3 | 0.3 | > 100 | 44.3 |
| OCCC[C@@H](O)CCCCCCCCC[C@H]1N[C@@H](CO)[C@@H](O)[C@@H]1O [2-epi-3, (2S,3R,4R,5R)-2-hydroxymethyl-3,4-dihydroxyl-5-((10R)-10,13-(dihydroxyl)dec-1-yl) pyrrolidine] | 73 | > 100 | 3.8 | 1.6 | > 100 | > 100 | 16.8 | > 100 | 0 | > 100 | 0 | 3.3 | 0 | > 100 | – |
| OCCC[C@H](O)CCCCCCCCC[C@@H]1N[C@@H](CO)[C@@H](O)[C@H]1O [ent-3-epi-3, (2S,3R,4S,5S)-2-hydroxymethyl-3,4-dihydroxyl-5-((10S)-10,13-(dihydroxyl)dec-1-yl) pyrrolidine] | > 100 | > 100 | 0 | 0 | > 100 | 42 | – | > 100 | 0 | > 100 | 1.3 | 15.2 | 0 | > 100 | 28.7 |
| OCCC[C@@H](O)CCCCCCCCC[C@@H]1N[C@@H](CO)[C@@H](O)[C@H]1O [ent-3,10-di-epi-3] | 42 | > 100 | 0 | 6.6 | > 100 | 84 | – | > 100 | 2.3 | > 100 | 0 | 11.4 | 0 | > 100 | – |
| OCCC[C@H](O)CCCCCCCCC[C@H]1N[C@H](CO)[C@@H](O)[C@@H]1O [10’-epi-3, (2R,3R,4R,5R)-2-hydroxymethyl-3,4-dihydroxyl-5-((10S)-10,13-(dihydroxyl)dec-1-yl) pyrrolidine] | 20 | > 100 | 36.5 | 4.6 | > 100 | > 100 | 26.4 | > 100 | 0 | > 100 | 0 | 4.7 | 0 | > 100 | – |
| OCCCC(O)CCCCCCCCCC1NC(CO)C(O)C1O [2,10-di-epi-3, (2S,3R,4R,5R)-2-hydroxymethyl-3,4-dihydroxyl-5-((10S)-10,13-(dihydroxyl)dec-1-yl) pyrrolidine] | 80 | > 100 | 6.8 | 3.2 | > 100 | 1.4 | – | > 100 | 0 | > 100 | 0.32 | 4.7 | 0 | > 100 | – |
